Converted amounts (≈) assume the structure as drawn. Read-outs that look alike come from different tables or passages of the source.
What was measured:
[1] = not told, 120 μg/mL
[2] = partition coefficient between organic fluid and water, from solubility ratio
Source text: [formula] where m is the rate at which drug is transported across the membrane (g/sec), Vp is the volume of the permeate solution (cm^3), [D]p is the concentration of drug in the permeate solution (g/cm^3), t is the time (sec), am is the membrane area (cm^2), Pov is the overall permeability coefficient (cm/sec), [Ddissolved]f is the concentration of dissolved drug in the feed solution (g/cm^3), and kp,mem is the partition coefficient of drug between the organic fluid and water, which is defined as the ratio of (1) the concentration of drug in the organic fluid, and (2) the concentration of dissolved neutral drug in the aqueous feed solution when the two solutions are at equilibrium. The partition coefficient can be estimated from the ratio of (1) the solubility of drug in the organic fluid and (2) the solubility of the dissolved drug in the aqueous feed solution.
The organic fluid consisted of 4 mL of decanol, which was added to the permeate reservoir. […] An overhead stirrer was used to stir the decanol permeate solution at 100 rpm.
The organic fluid used in these tests consisted of 5 mL of 20 wt % decanol in decane.

[3] = in vivo oral dosing of OPC, plasma concentration; details: dog, beagle dogs, Fed
Procedure: The compositions tested in vitro in Examples 3-6 were tested in vivo to determine whether the in vitro results correlate with the in vivo results. For Examples 7 and 8, the composition was the same as that used in Example 3 (25% Drug 1:HPMCAS-M dispersion) dosed in the fasted state, and fed state, respectively. For Examples 9 and 10, the composition was the same as that used in Example 4 (crystalline Drug 1) dosed in the fasted state and fed state, respectively.
The compositions were orally dosed to beagle dogs in the form of an oral powder for constitution (OPC) by suspending the composition in about 15 mL of a solution of 3 wt % polyethylene glycol (PEG) with a molecular weight of 3,350 daltons, 0.5 wt % methylcellulose, and 0.15 wt % Polysorbate 80 in sterile water. In each case a sufficient amount of the pharmaceutical composition was used such that the OPC contained 90 mgA of Drug 1. The thus-formed OPCs were then dosed to dogs in either the fed state or fasted state (fasted overnight). Blood was collected from the jugular vein of the dogs before dosing and at various time points after dosing. To 100 μL of each plasma sample, 5 mL of methyl-tert-butyl ether (MTBE) and 1 mL of 500 mM sodium carbonate buffer (pH 9) were added; the sample was vortexed for 1 minute and then centrifuged for 5 minutes. The aqueous portion of the sample was frozen in a dry-ice/acetone bath, and the MTBE layer was decanted and evaporated in a vortex evaporator. Dried samples were reconstituted in 100 μL of mobile phase (33% acetonitrile and 67% of 0.1% formic acid in water). Analysis was carried out by HPLC.
The results of these tests are shown in Table 7, where Cmax,24 is the maximum concentration in the blood plasma during the first 24 hours, Tmax is the time to achieve the maximum concentration in the blood plasma and AUC0-24 is the concentration in the blood plasma area under the curve in the first 24 hours.

[4] = membrane-permeation test, plasma-treated (hydrophilic feed side) membrane, PBS feed, decanol permeate; type: in vitro ADME
Procedure: A cold plasma was used to treat the feed side of a microporous membrane as follows. An Accurel® PP 1E microporous polypropylene membrane was obtained from Membrana GmbH (Wuppertal, Germany). This membrane has a nominal pore size of 0.1 μm, a thickness of about 92 μm, and a porosity of about 70%. The contact angle of a drop of water placed on the untreated membrane is greater than about 110°.
The membrane was rinsed five times in fresh isopropyl alcohol at room temperature for about 24 hours, for a total rinsing time of about 120 hours, and then allowed to air dry. Prior to treatment, the membrane was rinsed in methanol in a sonicating bath for 1 minute at ambient temperature, and then allowed to air dry at ambient temperature.
A sample of the membrane measuring about 10 cm by about 23 cm was placed into a glass-walled plasma chamber having an inside diameter of about 3 inches (7.5 cm). The membrane was positioned such that the permeate side of the membrane was against the glass wall of the plasma chamber. The atmosphere of the plasma chamber was saturated with water vapor at a pressure of 550 mtorr by placing a shallow tray of water into the chamber prior to reducing the pressure using a vacuum pump.
After achieving a constant pressure in the plasma chamber (about 3 to 5 minutes), the plasma was generated using radio frequency (RF) power inductively coupled into the chamber via annular electrodes. The power on the RF generator was set at 50 watts. The membrane was exposed to the plasma for 45 seconds, after which the power was turned off and the pressure in the chamber increased to ambient using air. The contact angle of a drop of water placed on the surface of the plasma-treated membrane was about 40°. The contact angle of a drop of water placed on the permeate side of the same membrane was greater than about 110°.
The crystalline form of the cholesteryl ester transfer protein (CETP) inhibitor [2R,4S]4-[(3,5-bis-trifluoromethyl-benzyl)-methoxycarbonyl-amino]-2-ethyl-6-trifluoromethyl-3,4-dihydro-2H-quinoline-1-carboxylic acid ethyl ester, also known as torcetrapib (“Drug 1”) was evaluated in a membrane-permeation test. An apparatus similar to the one shown schematically in FIG. 3 was assembled as follows. A permeate reservoir was formed by gluing a sample of the plasma-treated membrane described above to a glass tube having an inside diameter of about 1 inch (2.54 cm) using an epoxy-based glue (LOCTITE® E-30CL HYSOL® from Henkel Loctite Corp, Rocky Hill, Conn.). The feed-side of the membrane was oriented so that it was on the outside of the permeate reservoir, while the permeate-side of the membrane was oriented so that it was on the inside of the reservoir. The glue was allowed to set by placing the permeate reservoir in an oven at 50° C. and 25% relative humidity (RH) overnight. The contact angle of a drop of water on the feed side of the membrane after assembling the permeate reservoir was about 50°. The effective membrane area of the permeate reservoir was about 4.9 cm^2.
[…] […] This is well in excess of the solubility of Drug 1 in water, estimated to be less than about 0.04 μg/mL. The feed solution was mixed on a vortex mixer for about 1 minute.
The apparatus was assembled by first filling the permeate reservoir with the permeate solution. The permeate reservoir, with attached membrane, was placed within a glass feed reservoir about 3.3 cm in diameter such that the membrane was held about 1 cm above the bottom of the feed reservoir, and the membrane was wetted by the permeate solution. The feed reservoir was equipped with a magnetic stir bar and the reservoir was placed on a stir plate and adjusted to a stir rate of 600 rpm. Care was taken to ensure no air bubbles were trapped beneath the feed side of the membrane. Time 0 was taken as the time the permeate reservoir was placed within the feed solution reservoir such that the feed solution contacted the membrane surface. […]

[5] = membrane-permeation test with un-treated (hydrophobic) microporous membrane; type: in vitro ADME
Procedure: A series of tests were performed using the procedure outlined in Example 1 except that an un-treated ACCUREL® PP 1E microporous polypropylene membrane was utilized in the test apparatus. The contact angle of a drop of water on the feed side of the membrane was greater than about 100°, and thus was hydrophobic. The flux of Drug 1 across the membrane was determined using the procedures outlined in Example 1 as a function of the amount of Drug 1 added to the feed solution. […] Without wishing to be bound by any particular theory or mechanism of action, it is believed that without the hydrophilic surface, particles of crystalline drug contacted the permeate solution (decanol) directly and dissolved into the decanol permeate solution, resulting in high maximum fluxes of Drug 1 across the membrane.

[6] = organic solvent or mixture, solubility in organic fluid
[7] = water, aqueous solubility (solubility in water)

CC[C@@H]1C[C@H](N(Cc2cc(C(F)(F)F)cc(C(F)(F)F)c2)C(C)=O)c2cc(C(F)(F)F)ccc2N1C(=O)OC(C)C [Drug 3, [2R,4S]4-[acetyl-(3,5-bis-trifluoromethyl-benzyl)-amino]-2-ethyl-6-trifluoromethyl-3,4-dihydro-2H-quinoline-1-carboxylic acid isopropyl ester]
Maximum Flux of Drug 3 [1]: 0.06 μg/cm^2-min
partition coefficient between the organic fluid and water ([2]; 20 wt % decanol in decane / water): greater than 250,000
solubility (physchem; [6]): > 25 mg/mL
solubility (physchem; [7]): < 0.0001 mg/mL

O=C(N[C@@H](Cc1ccccc1)[C@@H](O)C(=O)N1C[C@@H](O)[C@@H](O)C1)c1cc2cc(Cl)ccc2[nH]1 [Drug 2, 5-chloro-1H-indole-2-carboxylic acid [(1S)-benzyl-(2R)-hydroxy-3-((3R,4S)-dihydroxy-pyrrolidin-1-yl-)-3-oxypropyl]amide]
partition coefficient between the organic fluid and water [2]: about 12

CCOC(=O)N1c2ccc(C(F)(F)F)cc2[C@@H](N(Cc2cc(C(F)(F)F)cc(C(F)(F)F)c2)C(=O)OC)C[C@H]1CC [Drug 1, [2R,4S]4-[(3,5-bis-trifluoromethyl-benzyl)-methoxycarbonyl-amino]-2-ethyl-6-trifluoromethyl-3,4-dihydro-2H-quinoline-1-carboxylic acid ethyl ester]
Maximum Flux of Drug 1 [1]: 0.012 μg/cm^2-min
maximum flux in solution modeling the fed state relative to MFD solution [1]: 7,6 fold
partition coefficient between the organic fluid and water [2]: greater than 650,000
partition coefficient of the drug between the organic fluid and PBS [2]: greater than 650,000
Tmax ([3]; oral OPC 90 mgA Drug 1): 2.3 ± 1.9 h
AUC(0-t) ([3]; oral OPC 90 mgA Drug 1, read-out: AUC0-24): 928 ± 642 µg·h/mL
Cmax ([3]; oral OPC 90 mgA Drug 1, read-out: Cmax,24): 191 ± 55 µg/mL
Maximum Flux of Drug 1 ([4]; 89 μg/mL added to PBS feed, 80 to 160 minutes): 0.025 μg/cm^2-min
Maximum Flux of Drug 1 ([4]; 1000 μg/mL added to PBS feed, 90 to 210 minutes): 0.028 μg/cm^2-min
slope of permeate concentration versus time (least-squares fit) ([4]; 90 to 210 minutes, 1000 μg/mL added to PBS feed): 0.035 μg/mL-min
Drug 1 Concentration in Permeate ([4]; time 0 min, 89 μg/mL added to PBS feed): 0.0 µg/mL
Drug 1 Concentration in Permeate ([4]; time 0 min, 1000 μg/mL added to PBS feed, 37° C., average of duplicate tests): 0.0 µg/mL
Drug 1 Concentration in Permeate ([4]; time 20 min, 89 μg/mL added to PBS feed): 0.0 µg/mL
Drug 1 Concentration in Permeate ([4]; time 30 min, 1000 μg/mL added to PBS feed): 0.0 µg/mL
Drug 1 Concentration in Permeate ([4]; time 40 min, 89 μg/mL added to PBS feed): 0.0 µg/mL
Drug 1 Concentration in Permeate ([4]; time 60 min, 89 μg/mL added to PBS feed): 0.0 µg/mL
Drug 1 Concentration in Permeate ([4]; time 60 min, 1000 μg/mL added to PBS feed): 0.0 µg/mL
Drug 1 Concentration in Permeate ([4]; time 80 min, 89 μg/mL added to PBS feed): 1.7 µg/mL
Drug 1 Concentration in Permeate ([4]; time 90 min, 1000 μg/mL added to PBS feed): 3.3 µg/mL
Drug 1 Concentration in Permeate ([4]; time 100 min, 89 μg/mL added to PBS feed): 2.2 µg/mL
Drug 1 Concentration in Permeate ([4]; time 120 min, 89 μg/mL added to PBS feed): 3.0 µg/mL
Drug 1 Concentration in Permeate ([4]; time 120 min, 1000 μg/mL added to PBS feed): 4.5 µg/mL
Drug 1 Concentration in Permeate ([4]; time 140 min, 89 μg/mL added to PBS feed): 3.7 µg/mL
Drug 1 Concentration in Permeate ([4]; time 150 min, 1000 μg/mL added to PBS feed): 6.9 µg/mL
Drug 1 Concentration in Permeate ([4]; time 160 min, 89 μg/mL added to PBS feed): 4.0 µg/mL
Drug 1 Concentration in Permeate ([4]; time 210 min, 1000 μg/mL added to PBS feed): 7.4 µg/mL
Drug 1 Concentration in Permeate ([4]; time 240 min, 1000 μg/mL added to PBS feed): 9.2 µg/mL
Drug 1 Concentration in Permeate ([4]; time 270 min, 1000 μg/mL added to PBS feed): 11.8 µg/mL
Drug 1 Concentration in Permeate ([4]; time 300 min, 1000 μg/mL added to PBS feed): 12.2 µg/mL
Drug 1 Concentration in Permeate ([4]; time 330 min, 1000 μg/mL added to PBS feed): 14.9 µg/mL
Drug 1 Concentration in Permeate ([4]; time 360 min, 1000 μg/mL added to PBS feed): 13.9 µg/mL
Drug 1 Concentration in Permeate ([4]; time 390 min, 1000 μg/mL added to PBS feed): 16.9 µg/mL
Drug 1 Concentration in Permeate ([4]; time 420 min, 1000 μg/mL added to PBS feed): 21.4 µg/mL
Drug 1 Concentration in Permeate ([4]; time 450 min, 1000 μg/mL added to PBS feed): 21.5 µg/mL
solubility (physchem; aqueous buffer, aqueous solubility in PBS): < 4e-05 mg/mL
solubility (physchem; organic solvent or mixture, solubility in decanol): > 25 mg/mL
solubility (physchem; [6]): ~25 mg/mL (≈ 41.6 mM)
solubility (physchem; [7]): < 4e-05 mg/mL
Maximum Flux of Drug ([5]; 25 μg/mL Drug 1 added to the feed): 0.75 μg/cm^2-min
Maximum Flux of Drug ([5]; 50 μg/mL Drug 1 added to the feed): 1.5 μg/cm^2-min
Maximum Flux of Drug ([5]; 80 μg/mL Drug 1 added to the feed): 4.0 μg/cm^2-min
Maximum Flux of Drug ([5]; 200 μg/mL Drug 1 added to the feed): 7.1 μg/cm^2-min
Maximum Flux of Drug ([5]; 400 μg/mL Drug 1 added to the feed): 12.6 μg/cm^2-min
Maximum Flux of Drug ([5]; 700 μg/mL Drug 1 added to the feed): 26 μg/cm^2-min
Maximum Flux of Drug ([5]; 1000 μg/mL Drug 1 added to the feed): 32 μg/cm^2-min

From US7611630B2, “Method and device for evaluation of pharmaceutical compositions” (Bend Research, Inc., priority 2004, dated 2009)
